Measured values: patent US20260250290A1 (BRISTOL-MYERS SQUIBB COMPANY, priority 2023, published 2026)
Where a name gives a salt, the structure may show the parent alone.

Each compound was assayed against T1, full length SGK1 (Homo sapiens, UniProt O00141) (assay: SGK1 inhibition Assay A (Caliper LabChip electrophoretic separation of fluorescent peptide substrate and phosphorylated product)). Settings: Assay A; 20 μM ATP, 40 min incubation; read-out: SGK1 IC50.
T1 construct: 125 μM full length SGK1 (Life Technologies Part #PR7358A); purchased Life Technologies PR7358A
T1 sequence (O00141 1-431): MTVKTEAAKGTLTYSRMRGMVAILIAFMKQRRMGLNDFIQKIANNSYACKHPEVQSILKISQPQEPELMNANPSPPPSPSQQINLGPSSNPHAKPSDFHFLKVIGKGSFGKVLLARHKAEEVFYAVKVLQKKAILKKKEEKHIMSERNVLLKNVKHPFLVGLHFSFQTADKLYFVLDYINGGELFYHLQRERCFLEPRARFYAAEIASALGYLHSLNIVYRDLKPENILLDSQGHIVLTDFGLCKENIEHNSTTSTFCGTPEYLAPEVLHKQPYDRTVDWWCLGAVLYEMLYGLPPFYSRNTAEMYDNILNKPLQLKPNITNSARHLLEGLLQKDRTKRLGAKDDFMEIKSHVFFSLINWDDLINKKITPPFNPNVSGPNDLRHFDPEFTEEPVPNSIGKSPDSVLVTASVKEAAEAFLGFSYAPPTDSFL
Type: biochemical

IC50 [nM]	Compound
7	CC1CN(CCOc2cc(Cl)sc2C(=O)N[C@@H]2CCCN(c3cc(-c4ccnc(C(F)F)c4)n4ncnc(N)c34)C2)CCO1 (stereo partly drawn) [Example 295, N-((R)-1-(4-amino-7-(2-(difluoromethyl)pyridin-4-yl)pyrrolo[2,1-f][1,2,4]triazin-5-yl)piperidin-3-yl)-5-chloro-3-(2-(2-methylmorpholino)ethoxy) thiophene-2-carboxamide]
6	NC(=O)c1ccc(-c2cc(N3CCC[C@@H](NC(=O)c4sc(Cl)cc4OCCN4CCOCC4)C3)c3c(N)ncnn23)cc1F [Example 163, (R)-N-(1-(4-amino-7-(4-carbamoyl-3-fluorophenyl)pyrrolo [2,1-f][1,2,4]triazin-5-yl)piperidin-3-yl)-5-chloro-3-(2-morpholinoethoxy) thiophene-2-carboxamide, TFA]
1420	CCn1cc(-c2cc(N3CCC[C@@H](NC(=O)c4sc(Cl)cc4OCCN(C)C)C3)c3c(N)ncnn23)ccc1=O [Example 682, (R)—N-(1-(4-amino-7-(1-ethyl-6-oxo-1,6-dihydropyridin-3-yl)pyrrolo[2,1-f][1,2,4]triazin-5-yl)piperidin-3-yl)-5-chloro-3-(2-(dimethylamino)ethoxy)thiophene-2-carboxamide]
25	CC(=O)N1CC=C(c2cc(N3CCC[C@@H](NC(=O)c4cccc(NCC5CN(C)C5)n4)C3)c3c(N)ncnn23)C1 [Example 780, (R)-N-(1-(7-(1-acetyl-2,5-dihydro-1H-pyrrol-3-yl)-4-aminopyrrolo[2,1-f][1,2,4]triazin-5-yl)piperidin-3-yl)-6-(((1-methylazetidin-3-yl)methyl)amino)picolinamide]
10	CC(=O)N1CC=C(c2cc(N3CCC[C@@H](NC(=O)c4ccc(C)s4)C3)c3c(N)ncnn23)C1 [Example 255, (R)—N-(1-(7-(1-acetyl-2,5-dihydro-1H-pyrrol-3-yl)-4-aminopyrrolo[2,1-f][1,2,4]triazin-5-yl)piperidin-3-yl)-5-methylthiophene-2-carboxamide]
114	CC(=O)N1CC=C(c2cc(N3CCC[C@@H](NC(=O)c4cccnc4OCCN4CCN(C)CC4)C3)c3c(N)ncnn23)C1 [Example 722, (R)-N-(1-(7-(1-acetyl-2,5-dihydro-1H-pyrrol-3-yl)-4-aminopyrrolo[2,1-f][1,2,4]triazin-5-yl)piperidin-3-yl)-2-(2-(4-methylpiperazin-1-yl)ethoxy)nicotinamide]
3	CN(C)CCOc1cc(Cl)sc1C(=O)N[C@@H]1CCCN(c2cc(-c3ccn4nnnc4c3)n3ncnc(N)c23)C1 [Example 186, (R)—N-(1-(4-amino-7-(tetrazolo[1,5-a]pyridin-7-yl)pyrrolo[2,1-f][1,2,4]triazin-5-yl)piperidin-3-yl)-5-chloro-3-(2-(dimethylamino)ethoxy)thiophene-2-carboxamide]
14	Nc1ncnn2c(C3=CCN(C(=O)C4CCNCC4)C3)cc(N3CCC[C@@H](NC(=O)c4ccc(Cl)s4)C3)c12 [Example 894, (R)-N-(1-(4-amino-7-(1-(piperidine-4-carbonyl)-2,5-dihydro-1H-pyrrol-3-yl)pyrrolo[2,1-f][1,2,4]triazin-5-yl)piperidin-3-y1)-5-chlorothiophene-2-carboxamide]
13	COC(=O)N1CC=C(c2cc(N3CCC[C@@H](NC(=O)c4sc5ccccc5c4OCCN(C)C)C3)c3c(N)ncnn23)C1 [Example 661, Methyl (R)-3-(4-amino-5-(3-(3-(2-(dimethylamino)ethoxy)benzo[b]thiophene-2-carboxamido)piperidin-1-yl)pyrrolo[2,1-f][1,2,4]triazin-7-yl)-2,5-dihydro-1H-pyrrole-1-carboxylate]
3	COC(=O)N1CC=C(c2cc(N3CCC[C@@H](NC(=O)c4sc(Cl)cc4OC4CCN(C5COC5)CC4)C3)c3c(N)ncnn23)C1 [Example 572, Methyl (R)-3-(4-amino-5-(3-(5-chloro-3-((1-(oxetan-3-yl)piperidin-4-yl)oxy)thiophene-2-carboxamido)piperidin-1-yl)pyrrolo[2,1-f][1,2,4]triazin-7-yl)-2,5-dihydro-1H-pyrrole-1-carboxylate]
12	Nc1ncnn2c(-c3ccc4ncnn4c3)cc(N3CCC[C@@H](NC(=O)c4ccc(Cl)s4)C3)c12 [Example 247]
6	CS(=O)(=O)c1ccc(-c2cc(N3CCC[C@@H](NC(=O)c4ccc(Br)s4)C3)c3c(N)ncnn23)cc1 [Example 95, (R)-N-(1-(4-amino-7-(4-(methylsulfonyl)phenyl)pyrrolo[2,1-f][1,2,4]triazin-5-yl)piperidin-3-yl)-5-bromothiophene-2-carboxamide, TFA]
3	CC(=O)N1CC=C(c2cc(N3CCC[C@@H](NC(=O)c4sc(Cl)cc4OC[C@H](C)N)C3)c3c(N)ncnn23)C1 [Example 330, N—((R)-1-(7-(1-acetyl-2,5-dihydro-1H-pyrrol-3-yl)-4-aminopyrrolo[2,1-f][1,2,4]triazin-5-yl)piperidin-3-yl)-3-((S)-2-aminopropoxy)-5-chlorothiophene-2-carboxamide]
34	CC(=O)N1CC=C(c2cc(N3CCC[C@@H](NC(=O)c4csnn4)C3)c3c(N)ncnn23)C1 [Example 449, (R)-N-(1-(7-(1-acetyl-2,5-dihydro-1H-pyrrol-3-yl)-4-aminopyrrolo[2,1-f][1,2,4]triazin-5-yl)piperidin-3-yl)-1,2,3-thiadiazole-4-]
3	CN(C)CCOc1cc(Cl)sc1C(=O)N[C@@H]1CCCN(c2cc(-c3ccnc(C(F)F)c3)n3ncnc(N)c23)C1 [Example 340, (R)—N-(1-(4-amino-7-(2-(difluoromethyl)pyridin-4-yl)pyrrolo[2,1-f][1,2,4]triazin-5-yl)piperidin-3-yl)-5-chloro-3-(2-(dimethylamino)ethoxy)thiophene-2-carboxamide]
3	CN1CCC(Oc2cc(C(F)F)sc2C(=O)N[C@@H]2CCCN(c3cc(-c4ccc(C#N)c(F)c4)n4ncnc(N)c34)C2)CC1 [Example 440, (R)-N-(1-(4-amino-7-(4-cyano-3-fluorophenyl)pyrrolo[2,1-f][1,2,4]triazin-5-yl)piperidin-3-yl)-5-(difluoromethyl)-3-((1-methylpiperidin-4-yl)oxy)thiophenc-2-carboxamide]
7	Nc1ncnn2c(-c3ccnc(F)c3)cc(N3CCC[C@@H](NC(=O)c4ccc(C(F)(F)F)s4)C3)c12 [Example 154, (R)-N-(1-(4-amino-7-(2-fluoropyridin-4-yl)pyrrolo[2,1-f][1,2,4]triazin-5-yl)piperidin-3-yl)-5-(trifluoromethyl)thiophene-2-carboxamide, TFA]
18	CC(C)c1cc(C(=O)N[C@@H]2CCCN(c3cc(C4=CCN(S(C)(=O)=O)C4)n4ncnc(N)c34)C2)on1 [Example 119, (R)—N-(1-(4-amino-7-(1-(methylsulfonyl)-2,5-dihydro-1H-pyrrol-3-yl)pyrrolo[2,1-f][1,2,4]triazin-5-yl)piperidin-3-yl)-3-isopropylisoxazole-5-carboxamide, TFA]
246	CC(=O)N1CC=C(c2cc(N3CCC[C@@H](NC(=O)c4sc(C(F)F)cc4C4CCN(C)C4)C3)c3c(N)ncnn23)C1 (stereo partly drawn) [Example 398, N—((R)-1-(7-(1-acetyl-2,5-dihydro-1H-pyrrol-3-yl)-4-aminopyrrolo[2,1-f][1,2,4]triazin-5-yl)piperidin-3-yl)-5-(difluoromethyl)-3-(1-methylpyrrolidin-3-yl)thiophene-2-carboxamide]
10	CC(=O)NCCC(=O)N1CC=C(c2cc(N3CCC[C@@H](NC(=O)c4ccc(Cl)s4)C3)c3c(N)ncnn23)C1 [Example 915, (R)—N-(1-(7-(1-(3-acetamidopropanoyl)-2,5-dihydro-1H-pyrrol-3-yl)-4-aminopyrrolo[2,1-f][1,2,4]triazin-5-yl)piperidin-3-yl)-5-chlorothiophene-2-carboxamide]
12	C=Cc1cc(C)sc1C(=O)N[C@@H]1CCCN(c2cc(-c3ccnc(F)c3)n3ncnc(N)c23)C1 [Example 169, (R)—N-(1-(4-amino-7-(2-fluoropyridin-4-yl)pyrrolo[2,1-f][1,2,4]triazin-5-yl)piperidin-3-yl)-5-methyl-3-vinylthiophene-2-carboxamide]
1	Nc1ncnn2c(C3=CCN(C(=O)c4cnco4)C3)cc(N3CCC[C@@H](NC(=O)c4ccc(Cl)s4)C3)c12 [Example 890, (R)-N-(1-(4-amino-7-(1-(oxazole-5-carbony1)-2,5-dihydro-1H-pyrrol-3-y1)pyrrolo[2,1-f][1,2,4]triazin-5-yl)piperidin-3-y1)-5-chlorothiophene-2-carboxamide]
7	CC(=O)N1CC=C(c2cc(N3CCC[C@@H](NC(=O)c4csc(-c5ccccc5)n4)C3)c3c(N)ncnn23)C1 [Example 453, (R)-N-(1-(7-(1-acetyl-2,5-dihydro-1H-pyrrol-3-yl)-4-aminopyrrolo[2,1-f][1,2,4]triazin-5-yl)piperidin-3-yl)-2-phenylthiazole-4-carboxamide]
43	COc1cc(-c2cc(N3CCC[C@@H](NC(=O)c4ccc(Cl)s4)C3)c3c(N)ncnn23)ccc1C#N [Example 222, (R)-N-(1-(4-amino-7-(4-cyano-3-methoxyphenyl)pyrrolo [2,1-f][1,2,4]triazin-5-yl)piperidin-3-yl)-5-chlorothiophene-2-carboxamide, TFA]

Compound	IC50 [nM]
methyl (R)-3-(4-amino-5-(3-(6-(4-methylpiperazin-1-yl)picolinamido)piperidin-1-yl)pyrrolo[2,1-f][1,2,4]triazin-7-yl)-2,5-dihydro-1H-pyrrole-1-carboxylate [Example 789]	17
